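Five concentrations, 48 hours, 96-well plates. GI50: concentration for 50% inhibition of growth. At the TGI there is no net growth.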

Experimental findings from PubChem BioAssay (NCI) are described below.

What all share (test): NCI anticancer screen, dose series, 48 h
Assay [1] relates to SNB-19 CNS.
The test system of assay [2] is OVCAR-4 ovarian.
For assay [3], the system named is NCI-H522 lung.
The test system of assay [4] is PC-3 prostate.
For assay [5], the system named is SN12C renal.
The test system of assay [6] is A498 renal.
Assay [7] deals with HCT-15 colon.
The subject of assay [8] is KM12 colon.
Assay [9] has as its system CAKI-1 renal.
The test system of assay [10] is NCI-H23 lung.

For `CC[C@@]1(O)C(=O)NCc2c1cc1n(c2=O)Cc2cc3ccccc3nc2-1`, the GI50 in assay [1] is 1.92 µM; in assay [2] it was 35.5 µM; in assay [3], over 22.6 µM; in assay [4], 7.57 µM; in assay [5], 2.03 µM; in assay [6], 3.95 µM. Further, the GI50 was 25.8 µM in assay [7], over 50.6 µM in assay [8], 0.754 µM in assay [9] and 1.8 µM in assay [10]. In addition, the TGI in assay [1] is over 100 µM; in [2], over 100 µM; in assay [3], over 100 µM; in assay [4], over 100 µM; in [5] it was over 32.6 µM; in assay [6] it was 53.1 µM. Moreover, the TGI in assay [7] was over 100 µM; in assay [8], over 100 µM; in [9], 11 µM; in assay [10], 5.86 µM.

Regarding `Cn1nc(C(F)(F)F)c(-c2ccc(Cl)c(C(F)(F)F)c2)c1-c1ccc(OCc2ccc(Cl)cc2)cc1O`, the GI50 was 2.03 µM in [1]; 1.62 µM in [2]; 1.47 µM in assay [3]; 1.66 µM in assay [4]; 1.65 µM in [5]; 1.05 µM in [6]. Also, the GI50 in assay [7] is 1.6 µM; in assay [8], 1.6 µM; in [9] it was 1.48 µM; in assay [10] it was 1.41 µM. For the same compound, the TGI stood at 8.17 µM in assay [1]; 6.13 µM in assay [2]; 5.64 µM in assay [3]; 6.68 µM in assay [4]; 5.92 µM in assay [5]; 4.1 µM in assay [6]. Further, the TGI in assay [7] is 6 µM; in assay [8] it was 5.91 µM; in [9] it was 5.62 µM; in assay [10], 4.83 µM.

Regarding `Cn1c2ccccc2c(=Nc2ccccc2)c2c3ccccc3[nH]c21`, the GI50 in [2] is 5.41 µM; in assay [3], 2.29 µM; in [4], 1.69 µM; in [5], 1.24 µM; in [6], 1.34 µM; in assay [7], 1.51 µM. The GI50 in [9] was 0.78 µM; in [10], 2.73 µM. The TGI in assay [2] is 22 µM; in [3], over 100 µM; in assay [4] it was 6.2 µM; in [5], 3.11 µM; in [6], 3.08 µM; in assay [7], 3.49 µM. The figures for the TGI in [9] and in assay [10] were 2.05 µM and 20.4 µM, respectively.

As for `Nc1[nH]c(=O)ncc1F`, the TGI in [1], in [2], in [3], in assay [4], in assay [5] and in assay [6] was over 100 µM in each case. Further, the TGI in assay [7], in assay [8], in assay [9] and in assay [10] was over 100 µM each time.

As for `COc1cc(-c2cc(-c3ccc(N(C)C)cc3)nc(N3CCOCC3)c2C#N)cc(OC)c1OC`, the GI50 is 21.4 µM in [2]; 0.286 µM in [3]; 2.06 µM in assay [4]; 0.46 µM in assay [5]; 0.768 µM in assay [6]; 0.68 µM in assay [7]. For the same compound, the figures for the GI50 in assay [8], in [9] and in assay [10] were 1.34 µM, 0.333 µM and 6.66 µM, respectively. Further, the TGI in assay [2] is over 100 µM; in assay [4] it was over 100 µM; in assay [5], over 100 µM; in assay [6] it was 23.7 µM; in assay [7] it was 44.1 µM; in assay [8], over 100 µM. Also, the TGI in assay [9] was over 33.8 µM; in [10], over 100 µM.

Consider `CCCCCCCCCCCCn1c(C)nc2ccccc21`, for which the GI50 was 13.5 µM in assay [1]; 12.7 µM in assay [2]; 2.47 µM in assay [4]; 14.4 µM in assay [5]; 12.4 µM in assay [6]; 12.3 µM in assay [7]. Moreover, the GI50 in [8] was 14.3 µM; in assay [9], 14 µM; in [10], 0.49 µM. Moreover, the TGI is 26.3 µM in assay [1]; 25.6 µM in assay [2]; 15.8 µM in assay [4]; 31.1 µM in [5]; 25.5 µM in assay [6]; 27.4 µM in [7]. The TGI in [8] amounted to 29 µM; in assay [9], 31.2 µM; in assay [10], 11.5 µM.

Regarding `COc1ccc(SC2c3cc(OC)c(OC)cc3Oc3nc(N)c(C#N)c(N)c32)cc1` (centres undefined), the GI50 was 1.32 µM in [1]; 1.33 µM in assay [2]; 1.37 µM in [3]; 1.16 µM in [4]; 1.42 µM in assay [6]; 0.973 µM in assay [7]. Further, the GI50 is 1.53 µM in assay [8] and 1.45 µM in assay [10]. Moreover, the TGI in assay [1] came out at 2.64 µM; in assay [2] it was 2.73 µM; in [3] it was 2.77 µM; in [4] it was 2.49 µM; in assay [6], 2.85 µM; in [7], 2.23 µM. The values for the TGI in assay [8] and in [10] were 3.05 µM and 3.01 µM, respectively.

Consider `O=C1c2ccccc2C(=O)c2c1ccc(C(Br)Br)c2[N+](=O)[O-]`, for which the GI50 was 1.93 µM in assay [1]; 1.34 µM in [2]; 1.84 µM in [3]; 1.74 µM in assay [4]; 1.83 µM in [5]; 1.67 µM in [6]. The GI50 in assay [7] was 1.52 µM; in assay [8], 1.85 µM; in [10], 1.6 µM. For the same compound, the TGI came out at 4.42 µM in [1]; 2.73 µM in [2]; 3.46 µM in assay [3]; 3.47 µM in [4]; 3.86 µM in assay [5]; 7.73 µM in assay [6]. For the same compound, the TGI amounted to 2.93 µM in assay [7], 3.81 µM in assay [8] and 4.34 µM in [10].

Turning to `O=C(/C=C/c1ccc(C(F)(F)F)cc1)c1ccc(Nc2nc(NCCO)nc(NCCO)n2)cc1`, the GI50 in [2] is 4.29 µM; in assay [3], 2.15 µM; in assay [4], 3.29 µM; in [5], 2.71 µM; in assay [6], 8.85 µM; in [7] it was 3.07 µM. Further, the results for the GI50 in [8] and in assay [10] were 2.02 µM and 3.85 µM, respectively. Besides, the TGI in assay [2] was determined as 20.8 µM; in [3], 6.66 µM; in [4], 13.1 µM; in assay [5] it was 9.7 µM; in assay [6], 21.2 µM; in [7], 11.3 µM. The TGI in assay [8] is 4.17 µM; in [10] it was 17.4 µM.

Regarding `CCOC(=O)c1sc(-c2ccc(OS(=O)(=O)c3cccs3)c(C=O)c2)nc1C`, the GI50 in assay [1] is 1.37 µM; in assay [3], 1.51 µM; in assay [4], 1.26 µM; in [5], 1.98 µM; in assay [6], 1.58 µM; in assay [7], 0.561 µM. Moreover, the GI50 is 1.47 µM in assay [8], 1.31 µM in assay [9] and 1.76 µM in assay [10]. The TGI in assay [1] amounted to 2.95 µM; in [3] it was 3.43 µM; in assay [4], 4.81 µM; in assay [5], 5.75 µM; in [6], 3.18 µM; in [7], 2.13 µM. Also, the values for the TGI in [8], in assay [9] and in assay [10] were 3.24 µM, 3.94 µM and 4.54 µM, respectively.

As for `CC(=O)OCC1OC(OC2C(COC(C)=O)OC(OCCC[S-])C(OC(C)=O)C2OC(C)=O)C(OC(C)=O)C(OC(C)=O)C1OC(C)=O.[Au+].c1ccc(CN2[CH-]N(Cc3ccccc3)C(c3ccccc3)=C2c2ccccc2)cc1` (centres undefined), the GI50 in assay [1] was 3.66 µM; in assay [2] it was 3.45 µM; in [3] it was 1.72 µM; in assay [4], 3.28 µM; in assay [5], 3.32 µM; in assay [6] it was 3.41 µM. Moreover, the GI50 is 3.17 µM in assay [7], 3.8 µM in assay [8] and 3.23 µM in assay [10]. Besides, the TGI stood at 15.2 µM in assay [1]; 22.9 µM in assay [2]; 4.55 µM in assay [3]; 15 µM in assay [4]; 15 µM in [5]; 11.1 µM in assay [6]. Besides, the TGI in [7] amounted to 12.2 µM; in [8], 16.1 µM; in [10] it was 14 µM.

For the compound `C=C(CN1CCN(c2ccccc2OC)CC1)c1ccc(C(=O)Nc2ccccc2N)cc1`, the GI50 was 12.1 µM in assay [1]; 3.2 µM in assay [2]; 9.64 µM in assay [4]; 0.0129 µM in assay [5]; 2.03 µM in assay [7]; 3.32 µM in assay [8]. Further, the values for the GI50 in [9] and in assay [10] were 3.86 µM and 0.447 µM, respectively. Besides, the TGI in assay [1] was over 50 µM; in [2] it was 23.6 µM; in [4], over 50 µM; in assay [5], 0.0874 µM; in [7] it was 31.3 µM; in [8], 11.6 µM. Moreover, the TGI stood at 14.3 µM in [9] and 3.24 µM in assay [10].

`Cc1ccc(S(=O)(=O)N(/N=C(\N)Oc2ccc(Cl)cc2)C(=N)Oc2ccc(Cl)cc2)cc1`: the TGI in assay [1], in assay [2], in assay [3], in [5], in assay [6] and in assay [7] was over 100 µM throughout. Also, the TGI in assay [8], in [9] and in assay [10] was over 100 µM each time.

Take `O=C(c1cc(O)ccc1O)c1ccccc1C(Cl)(Cl)Cl`: the TGI in [1], in [2], in [3], in assay [5], in [6] and in assay [7] was over 100 µM each time. The TGI in assay [8], in [9] and in assay [10] was over 100 µM throughout.

As to `N/C(=N\NS(=O)(=O)c1ccccc1)Oc1ccc(Cl)cc1`, the TGI in [1], in [2], in assay [3], in [5], in assay [6] and in assay [7] was over 100 µM in each case. The TGI in [8], in assay [9] and in assay [10] was over 100 µM throughout.

Turning to `Cn1c2c([N+](=O)[O-])[se]nc2c(=O)n1-c1ccc([N+](=O)[O-])cc1`, the TGI is 18.4 µM in assay [1]; 0.909 µM in [2]; 2.94 µM in assay [3]; 3.46 µM in [5]; 23.7 µM in assay [6]; 2.73 µM in assay [7]. Further, the results for the TGI in assay [8], in assay [9] and in assay [10] were 15.7 µM, 4.03 µM and 4.49 µM, respectively.

As to `Cc1cnc[nH]c1=O`, the TGI in [1], in assay [2], in assay [3], in assay [5], in assay [6] and in assay [7] was over 100 µM in each case. For the same compound, the TGI in assay [8], in assay [9] and in [10] was over 100 µM in each case.

In the case of `O=C(O)c1c(O)c2cc(Br)ccc2oc1=O`, the TGI in assay [1], in assay [2], in [3], in assay [4], in assay [5] and in assay [6] was over 100 µM throughout. Besides, the TGI in [7], in assay [9] and in assay [10] was over 100 µM throughout.

As for `O=NC1c2cccc3cccc(c23)C1N=O` (centres undefined), the TGI in [1] stood at 43.4 µM; in assay [2], 3.56 µM; in [3] it was 9.14 µM; in assay [4] it was 25.4 µM; in [6], 35.8 µM; in assay [7], 5.02 µM. In addition, the TGI in [8] came out at 17 µM; in assay [9], 10.8 µM; in assay [10], 32.3 µM.

On to `C=C(C=O)C1CC(=O)C(C(=O)OC)[C@@H]2O[C@@](C)(CC2=O)C[C@@H]2OC(=O)[C@]3(O[C@@H]23)[C@@H](C(=O)OC)C1` (some centres undefined), for which the GI50 in assay [1] is 38.3 µM; in [2], 30 µM; in assay [3], 7.03 µM; in assay [4] it was 19.3 µM; in [5], 18.7 µM; in assay [6] it was 20.7 µM. The GI50 in assay [7] was 16.2 µM; in assay [8], 19.2 µM; in assay [10], 18.3 µM. The TGI in [1] was over 100 µM; in assay [2] it was 92.4 µM; in [3], 41.5 µM; in [4], 57.6 µM; in assay [5] it was 50.4 µM; in assay [6], 47 µM. The values for the TGI in [7], in assay [8] and in assay [10] were 38.5 µM, 45 µM and 42.8 µM, respectively.
